Experiments:
HUVEC = type: cell-based, human
Description: The cellular mechanisms of angiogenesis involve motility and alignment of ECs to form a capillary tube-like network on matrigel. Thus, we assessed whether or not apoEdp impaired EC differentiation in the tube formation assay as described in the Materials and Methods. The numbers of tubular structures (Fig. 3A) were quantitatively analyzed. […] “Percentage (%) of inhibition” in Fig. 3C is the mean number (± SEM) of tubules expressed as a proportion of that in the VEGF control group. ** p<0.01 and *** p<0.001.
Figure 3 ApoEdp inhibited capillary tubule formation (in vitro angiogenesis). […] Tubular structures were quantitated by manual counting under low power fields. […] (C) “Percentage (%) of inhibition” is the mean number (± SEM) of tubules expressed as a proportion of that in the VEGF control group. ** p<0.01 and *** p<0.001. […]
Matrigel (Sigma Aldrich, St Louis, MO) was thawed overnight on ice. […] After 12–16 hr, microtubule formation was assessed with an inverted photomicroscope and the images were photographed using Olympus U-RLF-T microscope. Manual counting at low power fields was used to quantitate tubular structures and percentage of inhibition was expressed using VEGF control wells as 100%.

[1] = tested on: VEGF-induced phosphorylation of Flk1, c-Src, Akt, eNOS, FAK, Erk1/2 in HUVECs; assay: Western blot of VEGF-induced phosphorylation of angiogenic signaling molecules; type: cell-based, human; settings: HUVEC, apoEdp 6–50 µM pre-treated 1 hr, VEGF 10 ng/mL 10 min, n = 5
Protocol: Figure 7 Inhibition by apoEdp of VEGF-induced Flk-1. HUVECs were pre-treated with apoEdp at the indicated concentrations for 1 hr; VEGF (10 ng/mL) added and incubated at 37°C for 10 min, to measure the phosphorylation of Flk-1(7-A), c-Src(7-B), Akt(7-C), eNOS(7-D), FAK(7-E), and Erk1/2(7-F). Equal loading of total proteins was also measured as described in Materials and Methods. Values were normalized by arbitrarily setting the densitometry of control cell signals 1.0 (mean ± SEM, n = 5). The asterisks indicate significant differences compared with VEGF stimulation (*p<0.05, **p<0.01 and ***p<0.001).
Confluent HUVECs were grown in EBM-2 supplemented with 1% FBS for 24 hr and the medium was replaced with fresh low serum (1% FBS) media in the presence or absence of varying concentrations of apoEdp (6–50 µM). After 1 hr, VEGF was added to a concentration of 10 ng/mL and incubated for 10 min so that the phosphorylated forms of angiogenic signaling molecules could be detected. The cells were then lysed, quantified for protein concentration, and separated on 4–20% pre-cast SDS–PAGE gels. Western blots of control and treated lysates were performed with antibodies against the phospho form of Flk-1, c-Src, FAK, ERK1/2, Akt, and eNOS. […] All primary and secondary antibodies were obtained from Santa Cruz Biotechnology (Santa Cruz, CA).

[2] = tested on: MDA-MB-231 tumor xenografts; assay: Xenograft tumor growth assay in nude mice; type: in vivo
Protocol: In order to assess the in vivo effect of apoEdp on tumor growth, we established subcutaneous human breast cancer MDA-MB-231 tumor xenografts in nude mice. Once tumor size became ∼100 mm^3 in approximately 10 days, mice were randomly divided into two groups, and treated with PBS or apoEdp at 40 mg/kg/day for three consecutive days.
Figure 6 ApoEdp inhibits tumor growth in vivo. MDA-MB-231 breast cancer cells were used for anti-tumor studies. A suspension of 3×10^6 cells in 0.1 mL of PBS was injected in the right dorsal flank. Tumors were monitored weekly in two diameters with digital calipers. Tumor volumes were determined using A×B^2×0.52 (where A is the longest and B is the shortest diameter). Tumors were allowed to grow to ∼100 mm^3 and mice were randomized. Single intralesional administration daily of PBS or 40 mg/kg/day of apoEdp for 3 consecutive days was performed and then stopped. Representative photographs of mouse xenograft treated with (A) apoEdp or PBS are shown.
Female nu/nu mice (8–12 weeks old, weighing ∼20 g) were obtained from […] (Harlan, Indianapolis, IN). […] The growth of the tumor xenograft was evaluated by determining the tumor volume using digital calipers every 7 days. Tumor volume was calculated using the relationship A×B^2×0.52, where A is the longest diameter and B the shortest. […]

Ac-LRKLRKRLLLRKLRKRLL-NH2 [apoEdp]
IC50 (HUVEC): 9 µM | VEGF-induced phosphorylation of Flk1, c-Src, Akt, eNOS, FAK and Erk1/2 [1]: significantly inhibited | Tumor growth in MDA-MB-231 xenograft ([2]; nude (nu/nu) mice, 40 mg/kg/day intralesional for 3 consecutive days, compared to PBS-treated controls): significantly inhibited tumor growth | Observable toxicity during treatment ([2]; nude mice, 40 mg/kg/day for 3 days, data not shown): no sign of observable toxicity
